Results on 8 substances are retold here after patent US8742068B2, “Treatment and prevention of inflammatory diseases and autoimmune diseases” (Universiteit Utrecht Holding B.V., priority 2007, dated 2014).

Entries after “also recorded” stand apart in the source; their conditions may differ.

One assay relates to adjuvant arthritis. The following applies: in vivo; cited from earlier work.
Assay [1] deals with synovial fluid mononuclear cells (SFMC). Description: Peptide-specific response of SFMC (intracellular staining and FACS). The format is cell-based, human. The following applies: eight days culture with peptide, 6 hour restimulation. As for the experimental part: Peptide-specific response of SFMC was measured by intracellular staining and FACS analysis. Therefore, cells were cultured in the presence of the peptide as described for PBMC. After 96 hours 100 μl of the medium was replaced by fresh culture medium and 40 IU/ml IL-2 was added. At day eight, cells were spun down, medium was aspirated and 200 μl new medium with fresh irradiated APC of the same donor was added (7.5*10^5 irradiated at 3500 rad) During 6 hours cells were cultured with or without the peptides and addition of the costimulatory mAbs CD28 and CD49 (0.5 μg/ml each) at 37° C. In the last 4 hours Golgistop (BD Biosciences) was added. Harvested cells were washed and surface stained as described previously […] with anti-CD3-Peridinin-chlorophyll-protein Complex (PerCP), anti-CD4-allophycocyanin (APC) and anti-CD69-fluorescein isothiocyanate (FITC) and subsequently fixed in Cytofix/cytoperm solution (BD Biosciences) followed by intracellular staining with phycoerythrin (PE) conjugated mAbs against either IL-10, IFNγ or TNFα. All antibodies were obtained from Becton Dickinson. Data are expressed as % positive cells of the CD3^+CD4^+ population.

Assay [2] deals with PBMC isolated from the blood of healthy donors. Description: Peptide-specific proliferation of human PBMC. The assay is classed as cell-based. The conditions noted are these: peptides at 20 μg/ml for 96 hours; compared to A5 control peptide. The text has this:
Peptide specific responses were studied in mononuclear cells obtained from the blood of healthy controls or the synovial fluid of a JIA and a RA patient. The patients were visiting the outpatient clinic of the departments of Rheumatology & Clinical Immunology and Pediatrics of the University Medical Center Utrecht (Utrecht, The Netherlands). The RA patient fulfilled diagnostic criteria of the American College of Rheumatology criteria for RA […]. Cells were isolated by ficoll (Pharmacia, Uppsala, Sweden) density gradient centrifugation of heparinized blood or synovial fluid and cultured in RPMI 1640 supplemented with 2 mmol/L glutamine, 100 U/ml penicillin and streptomycin (Gibco BRL, Gaithersburg, Md. USA) and 10% AB-positive heat-inactivated human serum (Sanquin Blood Bank, Utrecht, the Netherlands) in 96 wells round bottom plates (Nunc, Roskilde, Denmark) at 2*10^5 cells in 200 μl per well. Cultures were in triplicate stimulated with peptides at 20 μg/ml for 96 hours at 37° C. in 5% CO2 with 100% relative humidity. For determination of peptide-specific proliferation of PBMC, during the last 16 hours 1 μC1 (37 kBq) [^3H]-thymidine was added to each well and incorporation was measured. Data are expressed as stimulation index calculated as mean CPM of cells cultured with peptide divided by mean CPM of cells cultured without peptide.

In assay [3] the test system is proteoglycan induced arthritis. As to the kind of experiment: Proteoglycan induced arthritis (PGIA), intranasal pre-treatment. The assay is classed as in vivo, Balb/c mice. The following applies: control pOva. From the text:
The proteoglycan induced arthritis model (PGIA) is a murine model of rheumatoid arthritis and is described to be a T-cell dependent and antibody mediated model. In the model arthritis is induced by two times injection of human proteoglycan (hPG) in a synthetic adjuvant dimethyldioctadecylammonium (DDA), see Hanyecz A. et al., Achievement of a synergistic adjuvant effect on arthritis induction by activation of innate immunity and forcing the immune response toward the Th1 phenotype. Arthritis Rheum. 2004 50(5):1665-76.
Because arthritis is induced by immunization with a synthetic adjuvant, instead of complete Freund's adjuvant (CFA), the role of interfering immune responses, induced by microbial Hsp's present in CFA, can be excluded. Due to cross reactive responses, between the human and the mouse (self) PG, a chronic and relapsing arthritis develops. After disease development, arthritis severity is scored by clinical assessment of thickness, redness and deformation of the joints on a scale of 1-4 per paw.
Ten female Balb/c mice, retired breeders obtained from Charles River, were randomly divided in two groups. To evaluate the effect of intra nasal treatment with Mycobacterial HSP70 (SEQ ID NO: 55) on PGIA 30 μg Hsp70 in 10 μl PBS was administered on day −7, −5 and −3 before disease induction. PGIA was induced by two times i.p. injection with 400 μg hPG and 2 mg DDA in 200 μl PBS. Subsequently developed arthritis scores were assessed by clinical evaluation as described in Example 7.
Fifteen female Balb/c mice, retired breeders obtained from Charles River, were randomly divided in three groups (five mice per group). To evaluate the effect of intranasal treatment with Hsp70-derived peptides “B1” (SEQ ID NO: 1) and a mixture of C1 (SEQ ID NO: 3) and mC1a (SEQ ID NO: 4) (designated herein as “C1mix”) on PGIA 100 μg peptide in 10 μl PBS was administered on day −7, −5 and −3 before disease induction. Ovalbumin peptide 323-339 (pOva) was used as a control peptide. PGIA was induced by two times i.p. injection with 400 μg hPG and 2 mg DDA in 200 μl PBS. Subsequently developed arthritis scores were assessed by clinical evaluation.
Twelve female Balb/c mice, retired breeders obtained from Charles River, were randomly divided in two groups (six mice per group). To evaluate the effect of intra nasal treatment with Hsp70 derived mC1 a on PGIA 100 μg peptide in 10 μl PBS was administered on day −14, −11, −7 and −4 before disease induction. Ovalbumin peptide (pOva) was used as a control peptide. PGIA was induced by two times i.p. injection with 400 μg hPG and 2 mg DDA in 200 μl PBS. Subsequently developed arthritis scores were assessed by clinical evaluation.
Eighteen female Balb/c mice, retired breeders obtained from Charles River, were randomly divided in three groups (six mice per group). To evaluate the effect of intranasal (i.n.) treatment with Hsp70 derived peptides C1 and its mouse homologue mC1a on PGIA 100 μg peptide in 10 μl PBS was administered on day −7, −5 and −3 before disease induction (see FIG. 28). Ovalbumin peptide (pOva) was used as a control peptide. PGIA was induced by two times i.p. injection with 300 μg hPG and 2 mg DDA in 200 μl PBS. Subsequently developed arthritis scores were assessed by clinical evaluation. • Group A: (pOva): Treated with 100 μg pOva in 10 μl PBS intranasally • Group B (C1): Treated with 100 μg C1 in 10 μl PBS intranasally • Group C (mC1a): Treated with 100 μg mC1a in 10 μl PBS intranasally

The subject of assay [4] is primed spleen and draining lymph node cells. Description: Peptide pool immunization, in vitro re-stimulation with individual peptides (T-cell proliferation, cytokine production, cross reactivity). The assay is classed as cell-based, Balb/c mice. The text has this:
To define the epitopes more precisely, we divided the 13 peptides, based on the degree of sequence identity between bacterial and the homologous mouse Hsp70s, in three pools (pool A: non-conserved peptides, pool B: conserved peptides comprising at least about 80% amino acid identity to the mouse homologue, and pool C: highly conserved peptides comprising >86% amino acid identity to the mouse homologue, see below) and immunized 10-12 weeks old Balb/c mice twice with a 2 week interval (intraperitoneally and subcutaneously) with the peptide pools. 10 days after the second immunization primed spleen and draining lymph node cells were re-stimulated in vitro with all the 13 individual peptides after which we measured T-cell proliferation (tritium incorporation), IFNγ, IL10, IL4 and IL5 production (cytokine production).
Cross reactivity was determined with the corresponding mouse homologue peptides.

In another assay the test system is arthritis. The following applies: cited from earlier work.
Setting [5] is: Example 11: 100 μg intranasally on day −7, −5 and −3.

Consider “amino acids 84-103: another peptide of Mycobacterial HSP70, amino acids 84-103 (Tanaka et al. 1999) (KKYTAPEISARILMKLKRDA; UniProt P9WMJ9 84-103, looked up, fragment)”, for which the “development of adjuvant arthritis” value with adjuvant arthritis was “does not suppress adjuvant arthritis development”.
Regarding “VLRIINEPTAAAIAY (listed as Mus musculus) [mC1b, mouse hsp70 (hspa1a/hspa8) peptide, mouse homologue of C1]”, in assay [1], the “production of IL-10, IFNγ and TNFα in the CD3+CD4+ population” value was “increased the production of IL-10, IFNγ and TNFα”; the “surface expression of CD69 in the CD3+CD4+ population” value was “increased”. For the same substance, in assay [2], the “peptide-specific proliferation (stimulation index, [3H] thymidine incorporation)” value is reported as “increased proliferation of PBMC; also recorded: significantly increased the proliferation”.
“peptide 234-252: peptide 234-252 of Mycobacterial HSP70 (Tanaka et al. 1999) (LREAAEKAKIELSSSQSTS; UniProt P9WMJ9 234-252, looked up, fragment)”: in the assay with adjuvant arthritis, the IL-10 production result is on record as “induces IL-10 production” and the “development of adjuvant arthritis” value was “suppresses the development of adjuvant arthritis”.
In the case of “DEVVAVGAALQAGVL (listed as Mycobacterium tuberculosis) [B1, pool B (conserved)]”, in assay [3] (Example 9: 100 μg intranasally on day −7, −5 and −3), the “disease severity (arthritis score)” value is “reduction of disease severity”. Besides, the “Cross-reactivity of bacterially primed T-cells with mouse homologue peptide” value (“Cross-reactivity … with mouse homologue peptide” for short) in assay [4] was “induced cross reactive T cell responses and yes”.
Consider “KPFQSVIADTGISVS (listed as Mycobacterium tuberculosis) [A1, pool A (not conserved)]”, for which the “Cross-reactivity … with mouse homologue peptide” value in assay [4] was “no”.
Turning to “peptide 111-125: synthetic 15-mer peptide of mycobacterial HSP70, amino acids 111-125 (Wendling et al. 2000) (ITDAVITTPAYFNDA; UniProt P9WMJ9 111-125, looked up, fragment)”, the arthritis entry in the assay on arthritis (nasal administration) was “significant reduction of arthritis”. The arthritis development entry with arthritis (parenteral pre-immunization) is “did not protect against arthritis development”.
For “VLRIVNEPTAAALAY (listed as Mycobacterium tuberculosis) [C1]”, the “disease activity (arthritis score)” value in assay [3] (setting [5]) is “significant reduction of disease activity”. Besides, in assay [1], the “production of IL-10, IFNγ and TNFα in the CD3+CD4+ population” value is “increased CD69 and cytokine expression”; the “surface expression of CD69 in the CD3+CD4+ population” value was “increased CD69 and cytokine expression”. Further, in assay [4], the “Cross-reactivity … with mouse homologue peptide” value is “induced cross reactive T cell responses and yes”.
“VLRVINEPTAAALAY (listed as Mus musculus) [mC1a, mouse Grp75 (hspa9a) peptide 216-230, mouse homologue of C1]”: the “disease activity (arthritis score)” value in assay [3] (Example 10: 100 μg intranasally on day −14, −11, −7 and −4) is reported as “suppressed disease activity”; in assay [3] (setting [5]), “significant reduction of disease activity”.
